A short description of this data set: solvent given as SMILES.

Take `CCCCCCCCC1(CCCCCCCC)c2cc(C=O)ccc2-c2ccc(/C=C/c3ccc(N(c4ccccc4)c4ccccc4)cc3)cc21`: the emission maximum by setting is: (in C1CCOC1) 451 nm; (in C1COCCO1) 450 nm; (in CC#N) 486 nm; (in CC(C)=O) 481 nm; (in CCCCCC) 442 nm; (in CCOC(C)=O) 456 nm. Moreover, the emission maximum was found to be 490 nm (in CN(C)C=O); 485 nm (in CS(C)=O); 451 nm (in Cc1ccccc1); 459 nm (in ClC(Cl)Cl); 469 nm (in ClCCl).
In turn, `C(#Cc1cc(C#Cc2ccccc2)c(C#Cc2ccccc2)c(C#Cc2ccccc2)c1C#Cc1ccccc1)c1ccccc1` gave an emission maximum (in ClCCl) of 424 nm.
Consider `CC[N+](CC)=c1ccc2c(-c3ccccc3C(=O)O)c3c(=O)oc4cc5c(cc4c3oc-2c1)CCCN5C`, for which the emission maximum runs as follows: (in CCO) 651 nm; (in ClC(Cl)Cl) 647 nm; (in O) 658 nm.
Consider `O=c1c2cc(S(=O)(=O)O)ccc2[nH]c2ccc(S(=O)(=O)O)cc12`, for which the emission maximum (in CS(C)=O) came to 417 nm and the emission maximum (in O) came to 417 nm.
As for `CC/[NH+]=c1\cc2oc3cc(NCCC(=O)NCC(=O)OC)c4ccccc4c3nc-2cc1C`, the emission maximum is, setting by setting: (in CCO) 644 nm; (in O) 652 nm.
`CC(=O)c1cc(=O)n(C)c2cc(-c3ccc(N(C)C)cc3)sc12` registered an emission maximum (in CC#N) of 504 nm and an emission maximum (in ClCCl) of 610 nm.
`O=C1[C@@H]2[C@H](C(=O)N1c1ccc3cc4ccccc4cc3c1)[C@@H]1C=C[C@H]2C1` registered an emission maximum (in ClC(Cl)Cl) of 386 nm.
The molecule `CC(C)(C)c1ccc2c(c1)c1cc(C(C)(C)C)ccc1n2-c1ccc(N(c2ccc(-c3ccc(-c4ccc(-c5ccc(N(c6ccc(-n7c8ccc(C(C)(C)C)cc8c8cc(C(C)(C)C)ccc87)cc6)c6ccc(-n7c8ccc(C(C)(C)C)cc8c8cc(C(C)(C)C)ccc87)cc6)cc5)s4)s3)cc2)c2ccc(-n3c4ccc(C(C)(C)C)cc4c4cc(C(C)(C)C)ccc43)cc2)cc1` registered an emission maximum (in ClCCl) of 494 nm.
In turn, `COc1cc(C=C(C#Cc2ccccc2)C#Cc2ccccc2)c(OC)cc1C=C(C#Cc1ccccc1)C#Cc1ccccc1` came in with an emission maximum (in ClC(Cl)Cl) of 522 nm.
As to `CC(C)(C)c1ccc(Oc2cc3c4c(cc(Oc5ccc(C(C)(C)C)cc5)c5c6c(Oc7ccc(C(C)(C)C)cc7)cc7c8c(cc(Oc9ccc(C(C)(C)C)cc9)c(c2c45)c86)C(=O)N(c2ccccc2)C7=O)C(=O)N(c2ccccc2)C3=O)cc1`, the emission maximum (in ClC(Cl)Cl) was found to be 617 nm.
For the setting “in ClC(Cl)Cl”, `c1ccc(-c2ccc(-c3nc(-c4ccccc4)c(N(c4ccccc4)c4ccccc4)[se]3)cc2)cc1` showed an emission maximum of 468 nm.
For `CC(=O)O[B-]1(OC(C)=O)OC(/C=C/c2ccc(C)cc2)=CC(/C=C/c2ccc(C)cc2)=[O+]1`, the emission maximum came out at 484 nm (in C1CCOC1); 493 nm (in CC#N); 489 nm (in CC(C)=O); 499 nm (in CS(C)=O); 481 nm (in Cc1ccccc1); 491 nm (in ClC(Cl)Cl). Besides, under “in ClCCl”, the emission maximum stood at 492 nm.
`CCCCC(CC)CN1C(=O)C2=C(c3ccc(-c4ccc(C5=C6C(C)=CC(C)=[N+]6[B-](F)(F)n6c(C)cc(C)c65)cc4)s3)N(CC(CC)CCCC)C(=O)C2=C1c1ccc(-c2ccc(C3=C4C(C)=CC(C)=[N+]4[B-](F)(F)n4c(C)cc(C)c43)cc2)s1` (centres undefined) had an emission maximum (in Cc1ccccc1) of 637 nm.
Consider `Cc1cc(C2=C(c3cc(C)sc3C)S(=O)(=O)c3ccccc32)c(C)s1`, for which, for the setting “in C1CCOC1”, the emission maximum was determined as 465 nm.
Molecule `COc1cc2c3c(c4cc(OC)c(OC)c(OC)c4c2c(OC)c1OC)=[N+]1C(=C(c2c(C)cc(C)cc2C)c2cc4c5cc(OC)c(OC)c(OC)c5c5c(OC)c(OC)c(OC)cc5c4n2[B-]1(F)F)C=3` gave an emission maximum (in C1CCCCC1) of 749 nm; an emission maximum (in C1CCOC1) of 763 nm; an emission maximum (in CC#N) of 755 nm; an emission maximum (in Cc1ccccc1) of 767 nm; an emission maximum (in ClCCl) of 771 nm.
The molecule `COc1ccc(C#Cc2ncc(-c3ccccc3)o2)cc1OC` displayed an emission maximum (in ClCCl) of 390 nm.
For the setting “in CC#N”, `N#Cc1cccc(-c2pc3ccccc3s2)c1` (centres undefined) gave an emission maximum of 432 nm.
Consider `CC(C)c1cc(N(C)C)c(C#N)c2c1-c1cccc3cccc-2c13`, for which the emission maximum (in O) turned out to be 554 nm.
As to `CC1(C)c2ccccc2N(c2ccc(C(=O)c3cc(C(=O)c4ccc(N5c6ccccc6C(C)(C)c6ccccc65)cc4)cc(C(=O)c4ccc(N5c6ccccc6C(C)(C)c6ccccc65)cc4)c3)cc2)c2ccccc21`, the emission maximum is on record as 530 nm (in Cc1ccccc1) and 521 nm (in c1ccc2c(c1)c1ccccc1n2-c1ccc(-c2ccc(-n3c4ccccc4c4ccccc43)cc2)cc1).
Turning to `c1ccc(-c2nc(-c3ccccc3)nc(-c3cc(-n4c5ccccc5c5ccccc54)c(-n4c5ccccc5c5ncccc54)c(-n4c5ccccc5c5ccccc54)c3)n2)cc1`, the emission maximum (in C1CCOC1) amounted to 481.97 nm; the emission maximum (in CC#N) was determined as 535.03 nm; the emission maximum (in CCCCCC) came to 422.11 nm; the emission maximum (in Cc1ccccc1) amounted to 447.02 nm; the emission maximum (in ClCCl) turned out to be 507.14 nm.
Take `COc1ccc(N(c2ccc(OC)cc2)c2ccc(-c3ccc4nc5ccccc5c(=O)n4c3)cc2)cc1`: the emission maximum (in ClCCl) was 538 nm.
`COc1ccc2cc(C#N)c3ccc4ccccc4c3c2c1` gave an emission maximum (in ClC(Cl)Cl) of 415 nm.
Turning to `CC(C)(C)C1Nc2ccccc2C(=O)N1Cc1ccccc1` (centres undefined), the emission maximum is, setting by setting: (in CC#N) 409 nm; (in CCCCCCCCCCCCCCCC) 381 nm; (in CO) 439 nm; (in ClC(Cl)Cl) 404 nm; (in c1ccccc1) 393 nm.
For `c1ccc2cc3cc(-c4cc(-c5nccs5)nc(-c5nccs5)c4)ccc3cc2c1`, the emission maximum (in CC#N) is reported as 474 nm, the emission maximum (in CCCCCC) amounted to 376 nm, the emission maximum (in CO) was 377 nm and the emission maximum (in ClC(Cl)Cl) turned out to be 452 nm.
`CSc1nc(-c2ccc(-n3c4ccccc4c4ccccc43)cc2)cc(-c2ccc(-n3c4ccccc4c4ccccc43)cc2)n1`: the emission maximum amounted to 447 nm (in C1CCOC1), 497 nm (in CN(C)C=O), 410 nm (in Cc1ccccc1) and 446 nm (in ClC(Cl)Cl).
With `CCC1=C(C)C(=O)n2c1cc1[nH]c(C(=O)OC(C)(C)C)c(C)c1c2=O`, the emission maximum (in C1CCCCC1) came to 443 nm; the emission maximum (in CO) was 505 nm; the emission maximum (in CS(C)=O) was found to be 483 nm; the emission maximum (in ClC(Cl)Cl) is 453 nm; the emission maximum (in c1ccccc1) came out at 443 nm.
`CCCCCCCCCCCCOc1cc2c3cc(OCCCCCCCCCCCC)c(OCCCCCCCCCCCC)cc3c3c(cc(OCCCCCCCCCCCC)c4nc5cc(C#Cc6ccc(OCCC(C)CCCC(C)C)cc6)c(C#Cc6ccc(OCCC(C)CCCC(C)C)cc6)cc5nc43)c2cc1OCCCCCCCCCCCC` (centres undefined) had an emission maximum (in ClC(Cl)Cl) of 660 nm.
As to `COC(=O)C(NC(=O)OC(C)(C)C)c1ccc2oc(-c3ccc(F)cc3)nc2c1` (centres undefined), the emission maximum runs as follows: (in CC1CCCCC1) 320 nm; (in CC#N) 341 nm; (in CO) 342 nm.
`CCCCCCN1C(=O)c2cccc3c(-c4ccc(-c5cc(-c6cccc7ccccc67)nn5-c5ccccc5)s4)ccc(c23)C1=O`: under “in ClCCl”, the emission maximum is given as 515 nm.
With `O=S(=O)(c1ccc(N(c2ccccc2)c2ccccc2)cc1)c1ccc(N(c2ccccc2)c2ccccc2)cc1`, the emission maximum is, setting by setting: (in Cc1ccccc1) 402 nm; (in O=P(c1ccccc1)(c1ccccc1)c1ccccc1Oc1ccccc1P(=O)(c1ccccc1)c1ccccc1) 421 nm.
With `COc1cc(OC)c2ccc(=O)oc2c1`, the emission maximum is 417 nm (in CC(C)O); 425 nm (in CCO); 390 nm (in CCOCC); 432 nm (in CO); 450 nm (in O).
For the molecule `COc1ccc(/C=C/C2=[O+][B-](F)(F)OC(/C=C/c3ccc(OC)cc3)=C2c2cccc(OC)c2)cc1`, where the note is “in ClCCl”, the emission maximum was 556 nm.
In turn, `Cc1cc(C)c(B2c3cc(C(C)(C)C)ccc3-c3c(-c4ccccc4)ccc4cc(C(C)(C)C)cc2c34)c(C)c1` gave an emission maximum (in C1CCCCC1) of 470 nm.
For the molecule `CCCC1(CCC)c2cc(-c3ccco3)ccc2-c2ccc(-c3ccco3)cc21`, the emission maximum (in C1CCCCC1) stood at 377 nm.
On the same count and under the same terms, under `C#Cc1ccc(C#Cc2cnc(C#Cc3ccccc3)nc2)cc1` stands 415 nm.
On to `CC(C)c1cccc(C(C)C)c1N1C(=O)c2cccc3c(Oc4ccc(Cl)cc4)ccc(c23)C1=O`, for which the emission maximum (in ClCCl) came out at 423 nm.
As to `COc1ccc(/C=C(\C#N)c2nc(-c3ccc(Cl)cc3)cs2)cc1`, the emission maximum (in CC#N) was 472 nm.
The molecule `Cc1c(C)c(N2c3ccccc3Oc3ccccc32)c(C)c(C)c1B(c1c(C)c(C)c(N2c3ccccc3Oc3ccccc32)c(C)c1C)c1c(C)c(C)c(N2c3ccccc3Oc3ccccc32)c(C)c1C` registered an emission maximum (in CC(C)(C)c1ccc(-n2c3ccc([Si](c4ccccc4)(c4ccccc4)c4ccccc4)cc3c3cc([Si](c4ccccc4)(c4ccccc4)c4ccccc4)ccc32)cc1) of 509 nm.
For the molecule `CC(C)[Si](C#Cc1c2ccccc2c(C#C[Si](C(C)C)(C(C)C)C(C)C)c2nc3c4ccccc4c(=O)c4ccccc4c3nc12)(C(C)C)C(C)C`, under “in ClCCl”, the emission maximum amounted to 544 nm.
For `CCN(CC)c1ccc2c(-c3ccc(S(=O)(=O)O)cc3S(=O)(=O)[O-])c3ccc(=[N+](CC)CC)cc-3oc2c1`, the emission maximum is recorded as 575 nm (in CC#N), 581 nm (in CCO), 576 nm (in CN(C)C=O) and 591 nm (in O).
Take `O=P(c1ccccc1)(c1ccccc1)c1cccc(-c2nc3ccccc3n2-c2cccc(P(=O)(c3ccccc3)c3ccccc3)c2)c1`: the emission maximum (in ClCCl) was determined as 376 nm.
Turning to `CC[n+]1c(-c2ccccc2)c2cc(N)ccc2c2ccc(NC(N)=[NH2+])cc21`, the emission maximum (in O) amounted to 590 nm.
Molecule `C/C=C/c1ccc(OC)cc1` yielded an emission maximum (in CC#N) of 330 nm and an emission maximum (in CCCCCC) of 328 nm.
Molecule `C[C@@]12SC(Cl)=CC1=c1nc(-c3ccc(Cl)cc3)[nH]c1=C1C=C(Cl)S[C@]12C` showed an emission maximum (in CC#N) of 449 nm.

For the origin of these results see the Deep4Chem optical property database.
